Source: US9120771B2, “Azetidine derivative and antidepressant composition including the same” (KOREA INSTITUTE OF SCIENCE AND TECHNOLOGY, priority 2011, dated 2015)
pIC50: −log10 of the molar value. Counter-ions that a name gives are not always drawn. Like-named read-outs stand apart in the source and are kept apart here.

Key:
[1] = target: T1, human dopamine transporter (Homo sapiens (Human), UniProt Q01959); experiment: hDAT reuptake assay (HEK-hDAT, FDSS6000); format: cell-based; conditions: HEK-hDAT cells
[2] = target: T2, human norepinephrine transporter (Homo sapiens (Human), UniProt P23975); experiment: hNET binding assay ([3H]Nisoxetine); conditions: for inhibition at 10 µM: read-out: hNET binding assay %-inhibition (10 uM)
Protocol: NE transporter binding assay for evaluating binding of the compound to the norepinephrine transporter was carried out using human recombinant norepinephrine transporter membrane (PerkinElmer Life and Analytical Sciences, USA) expressed in MDCK cells and radioisotope [^3H]Nisoxetine (PerkinElmer).
That is, the test drug, 6 nM [^3H]Nisoxetine, norepinephrine transporter membrane (11 ug/well), 120 mM NaCl and 50 mM Tris-HCl buffer (pH 7.4) containing 5 mM KCl were added to obtain a reaction mixture with a final volume of 0.25 ml. After incubation for 60 minutes at 4° C., the mixture was quickly passed through a Filtermat A glass fiber filter pre-soaked with 0.5% (w/v) PEI (polyethyleneimine) using Inotech Harvester (Inotech) to terminate the reaction. After washing with cold washing buffer (50 mM Tris-HCl, pH 7.4, 0.9% NaCl) solution, the filter was covered with MeltiLex and sealed in a sample bag. After drying in an oven, radioactivity was counted using MicroBeta Plus (Wallac).
Non-specific binding was measured in the presence of 1 uM desipramine. The IC50 value of the test drug was calculated from non-linear regression analysis (GraphPad Prism Program, San Diego, USA) of each %-inhibition value obtained from the drug with concentrations of 7th and 8th steps.

[3] = target: T2, human norepinephrine transporter; experiment: hNET reuptake assay (HEK-hNET, FDSS6000); format: cell-based; conditions: HEK-hNET cells
[4] = target: T3, human serotonin transporter (Homo sapiens (Human), UniProt P31645); experiment: hSERT reuptake assay (HEK-hSERT, FDSS6000); format: cell-based; conditions: HEK-hSERT cells
[5] = target: T3, human serotonin transporter; experiment: hSERT binding assay ([3H]Imipramine); conditions: for inhibition at 10 µM: read-out: hSERT binding assay %-inhibition (10 uM);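 on all read-outs here: displacement of radiolabeled imipramine from the transporter, incubated 30 min at 27 °C in Tris-HCl pH 7.4 with NaCl and KCl, bound radioactivity counted after filtration, nonspecific binding defined with 200 uM imipramine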
[6] = target: T1, human dopamine transporter; experiment: hDAT binding assay ([3H]WIN35,428); conditions: for pIC50: 8 nM [3H]WIN35,428; for inhibition at 10 µM: read-out: hDAT binding assay %-inhibition (10 uM);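 on all read-outs here: displacement of the radioligand from the transporter membranes, incubated 120 min at 4 °C in Tris-HCl buffer with NaCl, pH 7.4, measured by filter-bound radioactivity counting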
[7] = 10 uM, membrane from MDCK cells
[8] = membrane from MDCK cells, 6 nM [3H]Nisoxetine
[9] = 10 uM, membrane from HEK293 cells
[10] = membrane from HEK293 cells, 2 nM [3H]Imipramine
[11] = 10 uM, membrane from CHO-K1 cells

T2 sequence (P23975 whole entry): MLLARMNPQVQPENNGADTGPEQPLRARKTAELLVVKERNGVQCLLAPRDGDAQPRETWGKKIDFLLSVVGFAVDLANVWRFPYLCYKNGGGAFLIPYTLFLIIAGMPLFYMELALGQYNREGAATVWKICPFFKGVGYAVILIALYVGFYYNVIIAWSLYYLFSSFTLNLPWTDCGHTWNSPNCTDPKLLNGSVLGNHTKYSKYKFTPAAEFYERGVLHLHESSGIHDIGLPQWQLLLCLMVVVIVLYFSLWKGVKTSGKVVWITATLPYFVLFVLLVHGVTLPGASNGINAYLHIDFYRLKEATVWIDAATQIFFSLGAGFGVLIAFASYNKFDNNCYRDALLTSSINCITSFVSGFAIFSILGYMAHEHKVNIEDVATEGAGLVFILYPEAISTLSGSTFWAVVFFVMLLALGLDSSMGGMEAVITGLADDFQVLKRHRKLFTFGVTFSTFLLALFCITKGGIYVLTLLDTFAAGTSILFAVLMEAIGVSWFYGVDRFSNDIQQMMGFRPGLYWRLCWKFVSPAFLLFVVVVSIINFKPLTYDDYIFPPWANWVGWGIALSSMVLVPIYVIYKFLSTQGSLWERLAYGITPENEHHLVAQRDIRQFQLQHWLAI
T1 sequence (Q01959 whole entry): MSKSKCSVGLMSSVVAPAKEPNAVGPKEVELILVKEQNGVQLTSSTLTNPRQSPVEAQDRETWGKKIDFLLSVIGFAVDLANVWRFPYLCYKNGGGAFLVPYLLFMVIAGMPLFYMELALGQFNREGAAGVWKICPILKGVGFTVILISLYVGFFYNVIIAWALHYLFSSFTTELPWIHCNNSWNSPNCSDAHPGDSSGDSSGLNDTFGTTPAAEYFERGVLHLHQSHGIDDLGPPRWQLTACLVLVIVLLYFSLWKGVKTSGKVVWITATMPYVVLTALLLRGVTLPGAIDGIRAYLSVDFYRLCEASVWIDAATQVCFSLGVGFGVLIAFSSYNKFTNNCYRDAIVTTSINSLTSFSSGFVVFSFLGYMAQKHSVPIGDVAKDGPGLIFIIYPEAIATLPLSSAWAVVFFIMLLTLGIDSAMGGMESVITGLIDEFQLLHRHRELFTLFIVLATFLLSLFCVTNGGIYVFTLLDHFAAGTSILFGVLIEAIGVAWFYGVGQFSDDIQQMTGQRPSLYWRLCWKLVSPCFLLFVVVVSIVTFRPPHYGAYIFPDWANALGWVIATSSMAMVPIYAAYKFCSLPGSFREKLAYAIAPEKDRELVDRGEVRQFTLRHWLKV
T3 sequence (P31645 whole entry): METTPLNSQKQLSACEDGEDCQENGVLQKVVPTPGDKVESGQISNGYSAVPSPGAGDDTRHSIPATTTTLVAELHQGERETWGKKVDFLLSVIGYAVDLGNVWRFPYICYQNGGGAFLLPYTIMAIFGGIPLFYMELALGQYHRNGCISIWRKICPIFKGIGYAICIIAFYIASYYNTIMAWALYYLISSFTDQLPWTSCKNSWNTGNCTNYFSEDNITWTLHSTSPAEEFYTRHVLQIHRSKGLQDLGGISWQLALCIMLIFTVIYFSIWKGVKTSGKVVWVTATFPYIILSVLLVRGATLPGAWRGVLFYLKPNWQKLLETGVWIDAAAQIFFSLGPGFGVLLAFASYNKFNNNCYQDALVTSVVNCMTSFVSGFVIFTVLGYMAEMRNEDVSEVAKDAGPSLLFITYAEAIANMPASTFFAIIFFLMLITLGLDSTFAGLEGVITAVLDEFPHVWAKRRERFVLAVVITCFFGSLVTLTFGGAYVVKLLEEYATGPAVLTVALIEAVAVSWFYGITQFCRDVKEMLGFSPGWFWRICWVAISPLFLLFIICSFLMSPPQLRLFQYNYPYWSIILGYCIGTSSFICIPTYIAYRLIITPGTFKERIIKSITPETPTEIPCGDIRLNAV

Compound	pIC50 ([1]; Table 3)	inhibition at 10 µM [2, 7] [%]	pIC50 [2, 8]	pIC50 ([3]; Table 3)	pIC50 ([4]; Table 3)	melting point [°C]	pIC50 ([6]; membrane from CHO-K1 cells)	inhibition at 10 µM [6] [%]	inhibition at 10 µM [5, 9] [%]	pIC50 [5, 10]	pIC50 ([1]; Table 4)	pIC50 ([3]; Table 4)	pIC50 ([4]; Table 4)	also measured
Cc1ccccc1OC(c1ccc(Cl)c(Cl)c1)C1CNC1.Cl (centres unmarked) [KHG26774, 3-((3,4-dichlorophenyl)(ortho-tolyloxy)methyl)azetidine hydrochloride]	6.52	100	7.59	5.66	6.10	194	6.92	96						pIC50 [5]: 7.94; inhibition at 10 µM [5]: 100%
Cl.c1ccc(COC(c2ccccc2)C2CNC2)cc1 (centres unmarked) [KHG26768, 3-((benzyloxy)(phenyl)methyl)azetidine hydrochloride]	5.72	84	5.64	6.10	5.34	185	6.01	90	97	7.08				
Cl.O=C(OC(c1ccc(Cl)c(Cl)c1)C1CNC1)c1ccccc1 (centres unmarked) [KHG26773, azetidine-3-ly(3,4-dichlorophenyl)methyl benzoate hydrochloride]	6.30		6.67	5.96	6.05		6.62			7.16				hNET binding assay %-inhibition (10 uM) [2, 7]: 100%; hSERT binding assay %-inhibition (10 uM) [5, 9]: 100%; hDAT binding assay %-inhibition (10 uM) [6, 11]: 97%
CCCC(Oc1ccc2ccccc2c1)C1CNC1.Cl (centres unmarked) [KHG27284, 3-(1-(naphthalene-2-yloxy)butyl)azetidine hydrochloride]						77					6.15	7.10	8.07	
c1ccc(OC(c2ccccc2)C2CNC2)cc1 (centres unmarked) [KHG26765, hydrochloride]	6.42	90	5.78	7.40	7.30		6.07	87	98	6.95				
CC(C)(C)OC(c1ccc(Cl)c(Cl)c1)C1CNC1.Cl (centres unmarked) [KHG27252, 3-(tertiarybutoxy(3,4-dichlorophenyl)methyl)azetidine hydrochloride]						159.9					7.00	7.02	7.06	
Cl.O=C(OC(c1ccc(Cl)cc1)C1CNC1)c1ccccc1 (centres unmarked) [KHG26772, azetidine-3-ly(4-chlorophenyl)methyl benzoate hydrochloride]	5.89		5.46	5.60	5.59		6.50			6.45				hNET binding assay %-inhibition (10 uM) [2, 7]: 90%; hSERT binding assay %-inhibition (10 uM) [5, 9]: 96%; hDAT binding assay %-inhibition (10 uM) [6, 11]: 66%
Cl.Clc1ccc(C(OC2CCC2)C2CNC2)cc1Cl (centres unmarked) [KHG27253, 3-(cyclobutoxy(3,4-dichlorophenyl)methyl)azetidine hydrochloride]						166.1					7.48	7.96	7.59	
Cl.Clc1ccc(C(Oc2ccccc2)C2CNC2)cc1 (centres unmarked) [KHG26766, 3-((4-chlorophenyl)(phenoxy)methyl)azetidine hydrochloride]	6.82	90	7.04	7.40	7.40	191	6.64	94						pIC50 [5]: 8.04; inhibition at 10 µM [5]: 98%
Clc1ccc(C(Oc2ccccc2)C2CNC2)cc1Cl (centres unmarked) [KHG26767, 3-((3,4-dichlorophenyl)(phenoxy)methyl)azetidine hydrochloride]	7.22	100	8.26	7.52	7.30		7.16		98	8.37				inhibition at 10 µM [6, 11]: 94%
CN1CC(C(Oc2ccccc2)c2ccc3ccccc3c2)C1 (centres unmarked) [KHG26907, 1-methyl-3-(naphthalene-2-yl(phenoxy)methyl)azetidine]											6.65	7.06	6.69	
Cc1cccc(OC(c2ccc(Cl)c(Cl)c2)C2CNC2)c1.Cl (centres unmarked) [KHG26775, 3-((3,4-dichlorophenyl)(meta-tolyloxy)methyl)azetidine hydrochloride]	6.40	100	7.55	6.22	6.22	200	7.21	99	99	7.70				
Cl.Clc1ccc(C(OCc2ccccc2)C2CNC2)cc1Cl (centres unmarked) [KHG26770, 3-((benzyloxy)(3,4-dichlorophenyl)methyl)azetidine hydrochloride]	6.10	99	7.03	6.15	6.05	128	7.63	96	98	8.11				
Cl.Clc1ccc(C(OC2CCCCC2)C2CNC2)cc1Cl (centres unmarked) [KHG27255, 3-((cyclohexyloxy)(3,4-dichlorophenyl)methyl)azetidine hydrochloride]						189.4					7.26	7.85	7.23	
Cl.Clc1ccc(C(OCc2ccccc2)C2CNC2)cc1 (centres unmarked) [KHG26769, 3-((benzyloxy)(4-chlorophenyl)methyl)azetidine hydrochloride]	6.10	94	5.87	6.30	5.82	184	6.54	84	100	7.67				
Cc1ccc(OC(c2ccc(Cl)c(Cl)c2)C2CNC2)cc1.Cl (centres unmarked) [KHG26776, 3-((3,4-dichlorophenyl)(para-tolyloxy)methyl)azetidine hydrochloride]	6.52			6.30	6.15	193	6.77	95	100	8.25				pIC50 [2]: 7.57; inhibition at 10 µM [2]: 100%
Clc1ccc(C(OC2CCCC2)C2CNC2)cc1Cl (centres unmarked) [KHG27254, 3-((cyclopentyloxy)(3,4-dichlorophenyl)methyl)azetidine hydrochloride]											7.59	7.80	7.59	
